Patent publication US9840513B2 (AbbVie S.à.r.l., priority 2015, dated 2017)

Molecular target: T1, F508delCFTR cell surface expression in CFBE41o-F508delCFTR-HRP cells (Homo sapiens, UniProt P13569, DEL508-508)
T1 construct: fused on or other part: Horseradish peroxidase (HRP) reporter inserted in the fourth exofacial (extracellular) loop of CFTR; expression is doxycycline-inducible
Assay: Cell Surface Expression-Horse Radish Peroxidase (CSE-HRP) Assay
Type: cell-based
Settings: for EC50: CFBE41o-F508delCFTR-HRP cells, 18-24 hours at 33° C., 8-point curve, highest concentration 20 μM; for Maximum % activity (%): maximum at any tested concentration, normalized to on-plate positive control (3 μM)
Text: Cell Surface Expression-Horse Radish Peroxidase (CSE-HRP) Assay:
A cellular assay for measuring the F508delCFTR cell surface expression after correction with test compounds was developed in human lung derived epithelial cell line (CFBE41o-) (Veit G et al, (2012) Mol Biol Cell. 23(21): 4188-4202). This was achieved by expressing the F508delCFTR mutation along with a horseradish peroxidase (HRP) in the fourth exofacial loop and then measuring the HRP activity using luminescence readout from these cells, CFBE41o-F508delCFTR-HRP, that were incubated overnight with the test corrector compounds. Briefly, for this primary assay, the CFBE41o-F508delCFTR-HRP cells were plated in 384-well plates (Greiner Bio-one; Cat 781080) at 4,000 cells/well along with 0.5 μg/mL doxycycline to induce the F508delCFTR-HRP expression and further incubated at 37° C., 5% CO2 for 72 hours. The test compounds were then added at the required concentrations and further incubated for 18-24 hours at 33° C. The highest concentration tested was 20 μM with an 8-point concentration response curve using a 3-fold dilution. Three replicate plates were run to determine one EC50. All plates contained negative controls (dimethyl sulfoxide, DMSO) and positive controls (3 μM of 3-[(2R,4R)-4-({[1-(2,2-difluoro-1,3-benzodioxol-5-yl)cyclopropyl]carbonyl}amino)-7-methoxy-3,4-dihydro-2H-chromen-2-yl]benzoic acid) as well as on-plate concentration response of the positive control. Post incubation, the plates were washed 5× times with Dulbecco's phosphate buffered saline (DPBS), followed by the addition of the HRP substrate, luminol (50 μL), and measuring the HRP activity using luminescence readout on EnVision® Multilabel Plate Reader (Perkin Elmer; product number 2104-0010). The raw counts from the experiment are analyzed using Accelrys® Assay Explorer v3.3.
Z′ greater than 0.5 was used as passing quality control criteria for the plates.
The Z′ is defined as: 1−[3*SDPositive Control+3*SDNegative Control/Absolute(MeanPositive Control−MeanNegative Control)] wherein “SD” is standard deviation.
The % activity measured at each of the 8 test concentrations of the test compound was normalized to the on-plate positive control using the following formula: % activity=[(test compound response DMSO response)/(positive control response DMSO response)]*100
The maximum % activity achieved for the test compound at any tested concentration is presented in Table 1 along with the EC50 calculated using the following general sigmoidal curve with variable Hill slope equation (described as Model 42 in the Accelrys® Assay Explorer v3.3 software): y=(a−d)/(1+(x/c)^b)+d
General sigmoidal curve with concentration, response, top, bottom, EC50 and Hill slope.
This model describes a sigmoidal curve with an adjustable baseline, a. The equation can be used to fit curves where response is either increasing or decreasing with respect to the independent variable, “x”.
“x” is a concentration of drug under test.
“a” is the maximum response, and “d” is the minimum response
“c” is the inflection point (EC50) for the curve. That is, “y” is halfway between the lower and upper asymptotes when x=c.
“b” is the slope-factor or Hill coefficient. The sign of b is positive when the response increases with increasing dose and is negative when the response decreases with increasing dose (inhibition).

T1 sequence (P13569 with tags, fused parts or gaps DEL508-508 limits assumed): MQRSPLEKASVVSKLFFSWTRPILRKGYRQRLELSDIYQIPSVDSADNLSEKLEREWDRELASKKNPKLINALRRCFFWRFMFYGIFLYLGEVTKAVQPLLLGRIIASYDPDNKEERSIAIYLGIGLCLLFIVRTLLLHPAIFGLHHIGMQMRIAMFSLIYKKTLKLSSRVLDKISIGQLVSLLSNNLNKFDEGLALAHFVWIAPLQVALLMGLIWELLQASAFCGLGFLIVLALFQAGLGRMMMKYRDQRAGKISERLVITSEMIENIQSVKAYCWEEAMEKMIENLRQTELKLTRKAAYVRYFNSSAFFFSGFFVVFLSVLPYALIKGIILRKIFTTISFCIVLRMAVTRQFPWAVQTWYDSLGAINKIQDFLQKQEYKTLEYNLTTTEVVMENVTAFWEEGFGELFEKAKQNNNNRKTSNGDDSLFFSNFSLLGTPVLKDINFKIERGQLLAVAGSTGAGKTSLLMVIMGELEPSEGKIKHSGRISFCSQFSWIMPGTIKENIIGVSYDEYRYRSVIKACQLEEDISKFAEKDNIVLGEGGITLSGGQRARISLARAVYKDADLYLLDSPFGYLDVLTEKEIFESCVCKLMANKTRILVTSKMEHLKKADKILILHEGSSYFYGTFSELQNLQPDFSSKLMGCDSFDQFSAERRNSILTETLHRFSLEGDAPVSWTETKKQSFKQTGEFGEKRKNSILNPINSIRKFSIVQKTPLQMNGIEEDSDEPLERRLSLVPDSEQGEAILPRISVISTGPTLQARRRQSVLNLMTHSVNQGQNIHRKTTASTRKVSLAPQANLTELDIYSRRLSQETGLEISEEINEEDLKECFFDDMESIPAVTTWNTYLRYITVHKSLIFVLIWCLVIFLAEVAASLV
T1 sequence (P13569 919-1480 limits assumed, stated change not applied): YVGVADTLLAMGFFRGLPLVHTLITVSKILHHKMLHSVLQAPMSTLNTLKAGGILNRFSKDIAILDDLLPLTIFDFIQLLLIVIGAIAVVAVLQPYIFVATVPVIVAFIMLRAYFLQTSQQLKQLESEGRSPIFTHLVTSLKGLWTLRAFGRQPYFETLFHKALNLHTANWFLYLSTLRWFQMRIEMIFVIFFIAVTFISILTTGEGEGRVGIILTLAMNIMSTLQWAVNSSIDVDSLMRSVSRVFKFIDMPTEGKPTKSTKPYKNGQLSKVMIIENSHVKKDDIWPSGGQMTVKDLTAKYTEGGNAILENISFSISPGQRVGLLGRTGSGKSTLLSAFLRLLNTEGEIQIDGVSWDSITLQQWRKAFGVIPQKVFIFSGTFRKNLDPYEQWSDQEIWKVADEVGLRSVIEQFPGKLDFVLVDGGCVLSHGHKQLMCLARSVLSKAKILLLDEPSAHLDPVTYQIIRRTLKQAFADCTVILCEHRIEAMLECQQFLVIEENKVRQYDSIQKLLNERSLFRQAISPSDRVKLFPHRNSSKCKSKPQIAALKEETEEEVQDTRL

Row | EC50 [nM] | Maximum % activity (%) | SMILES
1 | 730 | 113 | C[C@]1(C(=O)Nc2cccc(N3CC[C@H](O)C3)n2)COc2cc3c(cc21)OC(F)(F)O3 [Example 88, (7R)-2,2-difluoro-N-{6-[(3S)-3-hydroxypyrrolidin-1-yl]pyridin-2-yl}-7-methyl-6,7-dihydro-2H-furo[2,3-f][1,3]benzodioxole-7-carboxamide]
2 | 1180 | 151 | COC(=O)c1ccc(-c2cccc(NC(=O)[C@@]3(C)COc4cc5c(cc43)OC(F)(F)O5)n2)cc1 [Example 79, methyl 4-(6-{[(7R)-2,2-difluoro-7-methyl-6,7-dihydro-2H-furo[2,3-f][1,3]benzodioxole-7-carbonyl]amino}pyridin-2-yl)benzoate]
3 | 1610 | 71 | C[C@]1(C(=O)N[C@H]2C[C@@H](C3(C(=O)O)CC3)Oc3cc(OC(F)(F)F)ccc32)COc2cc3c(cc21)OC(F)(F)O3 [Example 201, 1-[(2S,4S)-4-{[(7R)-2,2-difluoro-7-methyl-6,7-dihydro-2H-furo[2,3-f][1,3]benzodioxole-7-carbonyl]amino}-7-(trifluoromethoxy)-3,4-dihydro-2H-1-benzopyran-2-yl]cyclopropane-1-carboxylic acid]
4 | 7650 | 23 | CC(C)(CO)c1cc2cc(NC(=O)[C@]3(C)COc4cc5c(cc43)OC(F)(F)O5)c(F)cc2n1C[C@@H](O)CO [Example 138, (7S)—N-{1-[(2R)-2,3-dihydroxypropyl]-6-fluoro-2-(1-hydroxy-2-methylpropan-2-yl)-1H-indol-5-yl}-2,2-difluoro-7-methyl-6,7-dihydro-2H-furo[2,3-f][1,3]benzodioxole-7-carboxamide]
5 | > 20000 | 7 | COc1ccc2c(c1)O[C@H](COC[C@H](O)CO)C[C@@H]2NC(=O)[C@@]1(C)COc2cc3c(cc21)OC(F)(F)O3 [Example 275, (7R)—N-[(2S,4S)-2-{[(2R)-2,3-dihydroxypropoxy]methyl}-7-methoxy-3,4-dihydro-2H-1-benzopyran-4-yl]-2,2-difluoro-7-methyl-6,7-dihydro-2H-furo[2,3-f][1,3]benzodioxole-7-carboxamide]
6 | > 20000 | 3 | CC1(C)OC[C@@H](Cn2nc(-c3ccccc3)cc(NC(=O)[C@]3(C)COc4cc5c(cc43)OC(F)(F)O5)c2=O)O1 [Example 41, (7S)—N-(2-{[(4R)-2,2-dimethyl-1,3-dioxolan-4-yl]methyl}-3-oxo-6-phenyl-2,3-dihydropyridazin-4-yl)-2,2-difluoro-7-methyl-6,7-dihydro-2H-furo[2,3-f][1,3]benzodioxole-7-carboxamide]
7 | 180 | 229 | C[C@]1(C(=O)N[C@@H]2C[C@H]([C@H]3CC[C@H](C(=O)N4CCC(F)(F)CC4)CC3)Oc3cc(OC(F)(F)F)ccc32)COc2cc3c(cc21)OC(F)(F)O3 [Example 270, (7R)—N-[(2R,4R)-2-[trans-4-(4,4-difluoropiperidine-1-carbonyl)cyclohexyl]-7-(trifluoromethoxy)-3,4-dihydro-2H-1-benzopyran-4-yl]-2,2-difluoro-7-methyl-6,7-dihydro-2H-furo[2,3-f][1,3]benzodioxole-7-carboxamide]
8 | 4750 | 147 | C[C@]1(C(=O)Nc2ccc(N3CCCC3)cn2)COc2cc3c(cc21)OC(F)(F)O3 [Example 80, (7R)-2,2-difluoro-7-methyl-N-[5-(pyrrolidin-1-yl)pyridin-2-yl]-6,7-dihydro-2H-furo[2,3-f][1,3]benzodioxole-7-carboxamide]
9 | 60 | 150 | CCN(CCO)C(=O)[C@H]1CC[C@H]([C@H]2C[C@@H](NC(=O)[C@@]3(C)COc4cc5c(cc43)OC(F)(F)O5)c3ccc(OC(F)(F)F)cc3O2)CC1 [Example 253, (7R)—N-[(2R,4R)-2-{trans-4-[ethyl(2-hydroxyethyl)carbamoyl]cyclohexyl}-7-(trifluoromethoxy)-3,4-dihydro-2H-1-benzopyran-4-yl]-2,2-difluoro-7-methyl-6,7-dihydro-2H-furo[2,3-f][1,3]benzodioxole-7-carboxamide]
10 | 3020 | 120 | C[C@]1(C(=O)Nc2cccc(N3CCC(CO)(CCl)C3)n2)COc2cc3c(cc21)OC(F)(F)O3 (stereo partly drawn) [Example 110, (7R)—N-{6-[3-(chloromethyl)-3-(hydroxymethyl)pyrrolidin-1-yl]pyridin-2-yl}-2,2-difluoro-7-methyl-6,7-dihydro-2H-furo[2,3-f][1,3]benzodioxole-7-carboxamide]
11 | > 20000 | 10 | C[C@]1(C(=O)N[C@H]2C[C@@H](C3(C(=O)N(CCO)CCO)CC3)Oc3cc(OC(F)(F)F)ccc32)COc2cc3c(cc21)OC(F)(F)O3 [Example 280, (7R)—N-[(2S,4S)-2-{1-[bis(2-hydroxyethyl)carbamoyl]cyclopropyl}-7-(trifluoromethoxy)-3,4-dihydro-2H-1-benzopyran-4-yl]-2,2-difluoro-7-methyl-6,7-dihydro-2H-furo[2,3-f][1,3]benzodioxole-7-carboxamide]
12 | 1440 | 253 | Cc1cc(C(=O)O)ccc1-c1cccc(NC(=O)[C@@]2(C)COc3cc4c(cc32)OC(F)(F)O4)n1 [Example 120, 4-(6-{[(7R)-2,2-difluoro-7-methyl-6,7-dihydro-2H-furo[2,3-f][1,3]benzodioxole-7-carbonyl]amino}pyridin-2-yl)-3-methylbenzoic acid]
13 | 4560 | 22 | Cc1ccc(NC(=O)[C@@]2(C)CCc3c2ccc2c3OCO2)cc1-c1cccc(C(=O)O)c1 (single isomer, unassigned) [Example 38]
14 | 1530 | 89 | C[C@]1(C(=O)Nc2cccc(NC[C@H](O)CO)n2)COc2cc3c(cc21)OC(F)(F)O3 [Example 93, (7R)—N-(6-{[(2S)-2,3-dihydroxypropyl]amino}pyridin-2-yl)-2,2-difluoro-7-methyl-6,7-dihydro-2H-furo[2,3-f][1,3]benzodioxole-7-carboxamide]
15 | 460 | 140 | Cc1ccc(NC(=O)[C@@]2(C)COc3cc4c(cc32)OC(F)(F)O4)nc1-c1cc(C(=O)O)cs1 [Example 127, 5-(6-{[(7R)-2,2-difluoro-7-methyl-6,7-dihydro-2H-furo[2,3-f][1,3]benzodioxole-7-carbonyl]amino}-3-methylpyridin-2-yl)thiophene-3-carboxylic acid]
16 | 1070 | 155 | C[C@]1(C(=O)Nc2cc(C3CC3)nn(-c3cccc(C(=O)O)c3)c2=O)COc2cc3c(cc21)OC(F)(F)O3 [Example 29, 3-[3-cyclopropyl-5-{[(7R)-2,2-difluoro-7-methyl-6,7-dihydro-2H-furo[2,3-f][1,3]benzodioxole-7-carbonyl]amino}-6-oxopyridazin-1(6H)-yl]benzoic acid]
17 | > 20000 | 8 | C[C@]1(C(=O)Nc2cnc(N3CCC(C(=O)O)C3)cn2)COc2cc3c(cc21)OC(F)(F)O3 (stereo partly drawn) [Example 94, 1-(5-{[(7R)-2,2-difluoro-7-methyl-6,7-dihydro-2H-furo[2,3-f][1,3]benzodioxole-7-carbonyl]amino}pyrazin-2-yl)pyrrolidine-3-carboxylic acid]
